Measured values published in patent US9610262B2, “Therapeutic and/or preventive agent comprising 1-indansulfamide derivative for pain” (Eisai R&D Management Co., Ltd., priority 2013, dated 2017).

Experiments:
[1] = test system: tactile allodynia in rat chronic constriction injury (CCI) model; assay: Rat chronic constriction injury (CCI) model, von Frey filament test; assay type: in vivo, Male SD rats; conditions: for 50% Response threshold: mean±SEM; for response threshold against mechanical stimulation: pre-administration, 10 and 50 mg/kg oral
From the text: The rat chronic constriction injury (CCI) model was used to determine the efficacy on the chronic pain. In this model, tactile allodynia, a typical symptom in chronic pain patients, can be evaluated by using a response threshold against mechanical stimulation by von Frey filaments as an index (Bennett G. J. and Xie, Y. K., (Pain 1988; 33: p 87-107).
Male SD rats (Charles River Japan) aged 6 weeks (n=4, each treatment performed twice in total) were used for this experiment. The rat chronic constriction injury (CCI) model was prepared in accordance with the method of Bennett and Xie above.
The common sciatic nerve was exposed at the level of the middle of the thigh by blunt dissection through biceps femoris under isoflurane anesthesia. Four ligatures (4-0 silk) were tied loosely around the sciatic nerve at about 1 mm spacing. The biceps femoris and the skin were sutured.
On 14 days after surgery, efficacy of the compounds on tactile allodynia was evaluated. The animals were housed in wire mesh bottom cages for 30 minutes prior to the start of the experiment for acclimation. The test compound was suspended in an aqueous solution containing 0.45% methyl cellulose/4.5% Cremophor/10% dimethyl sulfoxide to prepare a suspension having a dosing volume of 10 ml/kg and the suspension was administered orally. The above mixed solvent (vehicle) alone not containing the test compound was used as a negative control. The response threshold against mechanical stimulation was measured by the application of von Frey filaments at bending forces (0.4, 0.6, 1, 2, 4, 6, 8, and 15 g) to the plantar surface of the hind paw in accordance with Chaplan et al. (J Neuroscience Methods 1994; 53(1): p. 55-63). The von Frey filaments were pushed to the paw for 6 seconds to evaluate escape response. The 50% response threshold was determined in accordance with the up-down method of Dixon (Annual Review of Pharmacology and Toxicology 1980; 20: p. 441-462). The measurement was performed before administration and at 30, 90 and 180 minutes after administration. All data are expressed as the mean±SEM. All statistical analyses were performed using Two way Repeated Measures ANOVA followed by Dunnett's test. The p-values less than 0.05 were judged as statistically significant in this experiment.

[2] = test system: acute persistent pain (formalin-injected paw); assay: Formalin test (second phase); assay type: in vivo, Male CD1 (ICR) mice; conditions: oral pre-administration; 15 to 45 minutes after injection of 2.5% formalin; FIG. 2
Method: The compounds were examined in the second phase of the formalin test to determine an analgesic effect on acute persistent pain. In this model, the duration of responses induced by pain (behavior such as licking or biting of the formalin-injected paw) is used as an evaluation index (Dubuisson and Dennis (Pain, 4: p. 161-174 (1977)). Male CD1 (ICR) mice (Charles River Japan) aged 5 to 6 weeks (n=6 to 16, for each treatment) were used for the experiment. The responses induced by pain were measured by an automated behavioral analysis apparatus (MicroAct (Neuroscience, Inc.)) according to detection of changes in magnetic field. Before the day prior to evaluation of pain response, a small magnet for the detection of changes in magnetic field was implanted in the left hindlimb instep under isoflurane anesthesia. For oral administration, the test compound was suspended in a solution containing 0.45% methyl cellulose/4.5% Ceremophor/10% dimethyl sulfoxide to prepare a suspension having a dosing volume of 10 ml/kg and the suspension was administered orally. The mixed solvent as above (vehicle) alone not containing the test compound was used as a negative control. Gabapentin was intraperitoneally administered as a positive control. A 2.5% formalin solution was prepared by diluting Formaldehyde Solution (Wako Pure Chemical Industries) with physiological saline (Otsuka Pharmaceutical). At 40 minutes to an hour after administration of the test compound or the positive control, 10 μl of the 2.5% formalin solution was subcutaneously injected in the left hindlimb pad. The mouse was placed in an observation chamber immediately after administration for measurement. For evaluation of an analgesic effect in the second phase, the duration of behaviors such as licking or biting of the paw was measured by the automated behavioral analysis apparatus from 15 to 45 minutes after injection of the 2.5% formalin solution. All data are expressed as the mean±SEM. All statistical analyses were performed using the Holm-Sidak's multiple comparisons test. The p-values less than 0.05 were judged as statistically significant in this experiment.

[3] = test system: acute pain (mice hot plate, 53° C.); assay: Mice hot-plate test; assay type: in vivo, Male C57BL/6NCrlCrlj mice; conditions: oral, 60 minutes before the hot-plate test; FIG. 1
Method: The mice hot-plate test was performed to determine the efficacy on acute pain. In this model, latency to the first pain response is recorded as a measure of pain sensitivity (Malmberg, A. and Yaksh, T., Pain. 1995, 60: 83-90).
Male C57BL/6NCrlCrlj mice (Charles River Japan) aged 6 weeks (n=4 to 10, for each treatment) were used for this experiment. The hot plate (model MK 350, Muromachi Kikai Co. Ltd) was set to 53° C. For oral administration, the test compound was suspended in an aqueous solution containing 0.45% methyl cellulose/4.5% Cremophor/10% dimethyl sulfoxide to prepare a suspension having a dosing volume of 10 ml/kg and the suspension was administered orally 60 minutes before the hot-plate test Morphine was used as a positive control and the mixed solvent (vehicle) alone not containing the test compound was used as a negative control.
Each mouse was placed on the hot plate and a stopwatch was immediately started for measurement. The latency time to the first pain response (paw lick or escape jump) was measured. The cut-off time was set to 30 seconds in order to avoid overdamage of the tissues, and the mouse was immediately removed from the hot-plate after measurement. All data are expressed as the mean±SEM. All statistical analyses were performed using Holm-Sidak's multiple comparisons test. The p-values less than 0.05 were judged as statistically significant in this experiment.

[4] = 10 mg/kg oral, 30 min after administration
[5] = 10 mg/kg oral, 90 min after administration
[6] = 10 mg/kg oral, 180 min after administration
[7] = 10 mg/kg oral, Pre (before administration), 14 days after surgery
[8] = 50 mg/kg oral, 30 min after administration
[9] = 50 mg/kg oral, 90 min after administration
[10] = 50 mg/kg oral, 180 min after administration
[11] = 50 mg/kg oral, Pre (before administration), 14 days after surgery

Structure (SMILES)	50% Response threshold [1, 4] [g]	50% Response threshold [1, 5] [g]	50% Response threshold [1, 6] [g]	50% Response threshold [1, 7] [g]	50% Response threshold [1, 8] [g]	50% Response threshold [1, 9] [g]	50% Response threshold [1, 10] [g]	50% Response threshold [1, 11] [g]	duration of the pain response [2]	latency time to the first pain response [3]	analgesic effect on tactile allodynia in CCI model ([1]; 50 mg/kg oral)	response threshold against mechanical stimulation [1]
NS(=O)(=O)NCc1csc2ccccc12 [compound 1, N-(benzo[b]thiophen-3-ylmethyl)sulfamide, reference compound]	2.7 ± 0.4	3.4 ± 0.2	3.4 ± 0.3	2.5 ± 0.2	3.5 ± 0.3	3.9 ± 0.3	2.8 ± 0.2	2.5 ± 0.2	–	–	–	–
NS(=O)(=O)NC[C@H]1COc2cc(Cl)ccc2O1 [compound 2, (2S)-(−)-N-(6-chloro-2,3-dihydro-benzo[1,4]dioxin-2-ylmethyl)-sulfamide, reference compound]	2.9 ± 0.4	3.2 ± 0.4	3.0 ± 0.2	2.6 ± 0.2	3.5 ± 0.3	4.5 ± 0.4	3.6 ± 0.6	2.6 ± 0.2	–	–	–	–
Cc1cc(F)cc2c1[C@H](NS(N)(=O)=O)C(F)(F)C2 [Compound 4, N-[(1S)-2,2,5-Trifluoro-7-methyl-2,3-dihydro-1H-inden-1-yl]sulfamide]	3.6 ± 0.4	5.2 ± 1.5	5.2 ± 1.0	2.4 ± 0.2	4.3 ± 0.9	6.9 ± 1.5	5.6 ± 1.6	2.4 ± 0.2	statistically significantly shortened	significantly increased	–	–
Cc1cccc2c1[C@H](NS(N)(=O)=O)C(F)(F)C2 [Compound 3, N-[(1S)-2,2-difluoro-7-methyl-2,3-dihydro-1H-inden-1-yl]sulfamide]	2.6 ± 0.4	3.5 ± 0.7	3.9 ± 0.4	2.4 ± 0.2	3.1 ± 0.4	3.2 ± 0.5	4.0 ± 0.4	2.4 ± 0.2	statistically significantly shortened	significantly increased	–	–
NS(=O)(=O)NC1c2c(Cl)cc(F)cc2CC1(F)F (single isomer, unassigned; (-)) [Compound 2, (−)-N-(7-chloro-2,2,5-trifluoro-2,3-dihydro-1H-inden-1-yl)sulfamide]	3.2 ± 0.4	4.1 ± 0.5	3.1 ± 0.2	2.4 ± 0.2	4.2 ± 0.6	7.6 ± 1.1	4.0 ± 0.5	2.3 ± 0.2	statistically significantly shortened	significantly increased	statistically significant analgesic effect	increased in an approximately dose dependent manner
NS(=O)(=O)N[C@H]1c2c(F)cc(F)cc2CC1(F)F [Compound 1, N-[(1S)-2,2,5,7-tetrafluoro-2,3-dihydro-1H-inden-1-yl]sulfamide]	3.2 ± 0.3	4.4 ± 0.5	3.1 ± 0.3	2.4 ± 0.2	6.0 ± 0.7	11.4 ± 1.4	5.3 ± 0.6	2.3 ± 0.2	statistically significantly shortened	significantly increased	statistically significant analgesic effect	increased in an approximately dose dependent manner
